Laboratory results taken from patent publication US7629315B2, “Compositions for blocking the inhibitory effect of human CRP on human leptin” (University of Pittsburgh of the Commonwealth System of …, priority 2005, dated 2009).

T1: long-form human leptin receptor, OB-Rb (Homo sapiens, UniProt P48357)
T1 construct: expressed in transfected cells
T1 sequence (P48357 22-1165): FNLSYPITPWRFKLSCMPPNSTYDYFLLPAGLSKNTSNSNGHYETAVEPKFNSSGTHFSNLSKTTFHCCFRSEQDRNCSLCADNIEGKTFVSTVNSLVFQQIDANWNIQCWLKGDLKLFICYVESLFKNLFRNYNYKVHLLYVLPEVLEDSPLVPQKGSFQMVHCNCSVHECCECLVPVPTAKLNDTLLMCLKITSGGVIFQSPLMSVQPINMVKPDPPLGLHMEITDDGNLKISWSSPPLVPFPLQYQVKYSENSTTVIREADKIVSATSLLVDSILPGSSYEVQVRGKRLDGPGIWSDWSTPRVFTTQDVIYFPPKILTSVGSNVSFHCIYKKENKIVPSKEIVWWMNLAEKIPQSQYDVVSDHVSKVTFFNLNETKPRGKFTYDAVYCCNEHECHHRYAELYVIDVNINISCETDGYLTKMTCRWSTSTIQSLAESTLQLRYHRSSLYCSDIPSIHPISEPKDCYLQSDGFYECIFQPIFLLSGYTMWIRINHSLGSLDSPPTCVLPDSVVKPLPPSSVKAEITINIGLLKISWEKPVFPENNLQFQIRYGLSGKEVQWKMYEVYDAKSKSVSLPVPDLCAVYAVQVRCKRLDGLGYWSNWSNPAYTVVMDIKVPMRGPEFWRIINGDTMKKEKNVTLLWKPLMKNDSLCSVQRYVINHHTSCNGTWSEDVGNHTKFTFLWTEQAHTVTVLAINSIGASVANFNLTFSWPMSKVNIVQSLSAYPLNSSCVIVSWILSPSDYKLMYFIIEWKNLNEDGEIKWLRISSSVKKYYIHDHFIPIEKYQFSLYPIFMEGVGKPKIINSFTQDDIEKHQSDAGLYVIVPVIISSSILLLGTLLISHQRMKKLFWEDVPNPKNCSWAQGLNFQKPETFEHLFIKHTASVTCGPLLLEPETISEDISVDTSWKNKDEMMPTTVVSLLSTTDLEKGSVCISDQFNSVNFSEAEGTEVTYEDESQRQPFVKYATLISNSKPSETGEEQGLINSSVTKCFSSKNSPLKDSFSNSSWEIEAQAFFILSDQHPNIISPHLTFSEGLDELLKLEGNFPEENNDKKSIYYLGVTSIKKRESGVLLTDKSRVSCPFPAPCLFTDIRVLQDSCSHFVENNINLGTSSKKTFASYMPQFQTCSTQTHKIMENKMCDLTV

B1: mouse SAP: mouse pentraxin-like serum amyloid P component structurally similar to CRP (protein)
chain: QTDLKRKVFVFPRESETDHVKLIPHLEKPLQNFTLCFRTYSDLSRSQSLFSYSVKGRDNELLIYKEKVGEYSLYIGQSKVTVRGMEEYLSPVHLCTTWESSSGIVEFWVNGKPWVKKSLQREYTVKAPPSIVLGQEQDNYGGGFQRSQSFVGEFSDLYMWDYVLTPQDILFVYRDSPVNPNILNWQALNYEINGYVVIRPRVWD

Key:
mice = assay: Continuous infusion of leptin in mice, plasma SAP; format: in vivo, mouse; conditions: elevation of serum leptin through continuous infusion in mice
[1] = test system: human primary hepatocytes; assay: Leptin-stimulated CRP expression in human primary hepatocytes in vitro; format: cell-based
lean and healthy humans = assay: Injection of leptin in lean and healthy humans, plasma CRP; format: in vivo, human
ob/ob mice = assay: Infusion of human CRP and/or human leptin by osmotic pumps into ob/ob mice; format: in vivo, mouse
Experimental: 3(a). In vivo assessment of CRP functions: The micro-osmotic pumps (#1007D, DURECT, Cupertino, Calif.) were subcutaneously imbedded in the ob/ob or wild-type mice according to the instructions of the manufacturer. The osmotic pumps were pre-filled with saline, CRP, leptin or leptin plus CRP. Food-intake (24-h), body weight, and body temperature were monitored daily post-surgery. Blood glucose concentrations were measured from the tail-vein blood samples right before and at the end of infusion with a Precision Plus glucose meter (Medisense, Abbot Park, Ill.).
3(b) Assessment of serum leptin insulin, and CRP: Human- and mouse-leptin concentrations were measured with the ELISA kit from CHEMICON (Temecular, Calif.) and R&D Systems (Minneapolis, Minn.), respectively, according to the instructions of the manufacturer. Serum mouse insulin concentrations were determined with an ELISA assay (LINCO Research, St. Charles, Mo.). Human CRP concentrations were also evaluated with an ELISA kit (Alpha Diagnostics International, San Antonio, Tex.).
3(c) Measurement of serum- and tissue-triglycerides: Serum- and tissue-triglycerides were determined with the protocols described in J. N. Huan et al., 2003, J. Biol. Chem. 278, 45638. […]

[2] = molecular target: T1, long-form human leptin receptor, OB-Rb; assay: 125I-leptin binding to HEK293 cells stably transfected with OB-Rb; conditions: HEK293 cell line stably transfected with OB-Rb; read-out: Kd for leptin and its receptors
Experimental: 4. Measurement of IC50 for human CRP against human leptin: Human leptin was iodinated with Na^125I using the lodogen method. Briefly, 15 μg of human leptin in 100 mM Phosphate buffer pH 7.5 were incubated with 1 mCi of carrier-free Na^125I (2200 Ci/mmol) in a glass tube containing 50 μg Iodogen. After 10 minute incubation at room temperature, the reaction was stopped with 100 μl 0.1% trifluoroacetic acid (TFA). The reaction mixture was immediately purified by reverse-phase HPLC. The separation employed a 5 minute isocratic step at 20% eluant B in A, followed by two consecutive 30 minute linear gradients from 20 to 50%, then from 50 to 60% eluant B in A (where eluant A is water containing 0.1% TFA and eluant B is acetonitrile containing 0.1% TFA) at a flow rate of 1.5 ml/min. The ^125I-labeled leptin (˜2 ng/ml) was pre-incubated with various concentrations of human CRP in 1 ml of μ-MEM for 30 minute before added to the OBR-expressing HEK293 cells. The incubation would last for 3 hours at 4° C. before the media was aspirated and the cells were dissolved in 0.1N NaOH for scintillation counting.
To examine if human CRP interferes with the binding of human leptin to its receptors, we used a HEK293 cell line stably transfected with the long-form human leptin receptor, OB-Rb. The characterization of this cell line has been reported in earlier studies. M. Friedman-Einat et al., 2003, Regul. Pept. […]

leptin = assay: Immunoprecipitation of mouse SAP with leptin; format: binding
[3] = human leptin alone, 6-day continuous infusion

Row | Molecule | plasma concentrations of SAP (mice) | expression of CRP [1] | plasma CRP concentrations (lean and healthy humans) | body weight (ob/ob mice; [3]) | food-intake (ob/ob mice; [3]) | blood glucose (ob/ob mice; leptin alone) | hepatic triglyceride (ob/ob mice; leptin alone) | plasma insulin (ob/ob mice; leptin alone) | serum triglyceride (ob/ob mice; leptin alone) | Kd [2] | binding of leptin (immunoprecipitation) (leptin)
1 | human leptin: recombinant human leptin, adipocyte hormone (SEQ ID NO:4) | increased plasma concentrations of SAP in mice | stimulates expression of CRP | leads to elevation of plasma CRP concentrations | produced the expected reduction in food-intake and body weight | produced the expected reduction in food-intake and body weight | lowering | lowering | lowering | lowering | 1 nM | 
2 | B1 |  |  |  |  |  |  |  |  |  |  | leptin binds to mouse SAP
